In patent US20240124442A1, “TRICYCLIC-AMIDO-BICYCLIC PRMT5 INHIBITORS” (AMGEN INC., priority 2021, published 2024):

Columns and labels:
HCT116 MTAP null cells = assay: HCT116 MTAP null cell line proliferation / cell viability (CellTiter-Glo, 6 days); type: cell-based; details: 144 h; HCT116 MTAP null cells, 6 days treatment, CellTiter-Glo cell viability; read-out: HCT-116 MTAP null IC50
Outline: (§1)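 Isogenic HCT116 pair (parental and MTAP-knockout) in RPMI 1640 + 10% FBS, treated 6 days with 8–9-point 1:3 dilutions from 1 or 10 μM top, or 22-point 1:2 dilutions from 10 or 50 μM top. Viability by CellTiter-Glo luminescence; IC50 from 4-parameter logistic fit or sigmoidal fit with Hill slope fixed at −1.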

HCT116 WT cells = assay: HCT116 WT (parent) cell line proliferation / cell viability (CellTiter-Glo, 6 days); type: cell-based; details: Homo sapiens, HCT-116, 144 h, 6 days treatment
Outline: as §1

| SMILES | IC50 (HCT116 MTAP null cells) [nM] | IC50 (HCT116 WT cells) [nM] |
| --- | --- | --- |
| C[C@H]1OC[C@@H](N(C)C(=O)c2ccc3nc(N)c4c(cnn4C)c3c2)c2ccc(C(F)(F)F)cc21 (single isomer, unassigned) [Example 601] | 21 | 2100 |
| C[C@H]1OC[C@H](N(C)C(=O)c2ccc3nc(N)c4c(cnn4C)c3c2)c2ccc(C(F)(F)F)cc21 (single isomer, unassigned) [Example 602] | 4260 | 21300 |
| C[C@@H]1OC[C@@H](N(C)C(=O)c2ccc3nc(N)c4c(cnn4C)c3c2)c2ccc(C(F)(F)F)cc21 (single isomer, unassigned) [Example 603] | 327 | 16000 |
| C[C@@H]1OC[C@H](N(C)C(=O)c2ccc3nc(N)c4c(cnn4C)c3c2)c2ccc(C(F)(F)F)cc21 (single isomer, unassigned) [Example 604] | 2300 | 19100 |
| CN(C(=O)c1cc2c(cc1F)nc(N)c1c2cnn1C)[C@@H]1COCc2c1ccc(F)c2F (single isomer, unassigned) [Example 605] | 285 | 26400 |
| CN(C(=O)c1cc2c(cc1F)nc(N)c1c2cnn1C)[C@@H]1COCc2cc(C(F)(F)F)cnc21 (single isomer, unassigned) [Example 606] | 724 | 13500 |
| Cn1ncc2c3cc(C(=O)N(CC4CC4)[C@@H]4COCc5nc(C(F)(F)F)ccc54)c(F)cc3nc(N)c21 (single isomer, unassigned) [Example 607] | 21 | 825 |
| CN(C(=O)c1ccc2nc(N)c3c(c2c1)COC3)[C@@H]1COCc2cc(Br)ccc21 (single isomer, unassigned) [Example 608] | 26 | 1040 |
| CN(C(=O)c1ccc2nc(N)c3c(c2c1)COC3)[C@H]1COCc2cc(Br)ccc21 (single isomer, unassigned) [Example 609] | 598 | 7800 |
| CN(C(=O)c1ccc2nc(N)c3c(c2c1)COC3)[C@@H]1COc2cc(C3CC3)ccc21 (single isomer, unassigned) [Example 610] | 108 | 5510 |
| CN(C(=O)c1ccc2nc(N)c3c(c2c1)COC3)[C@H]1COc2cc(C3CC3)ccc21 (single isomer, unassigned) [Example 611] | 1690 | 10500 |
| CN(C(=O)c1ccc2nc(N)c3c(c2c1)COC3)[C@@H]1COc2cc(C3=CCOCC3)ccc21 (single isomer, unassigned) [Example 612] | 33 | 2640 |
| CN(C(=O)c1ccc2nc(N)c3c(c2c1)COC3)[C@H]1COc2cc(C3=CCOCC3)ccc21 (single isomer, unassigned) [Example 613] | 860 | 2630 |
| CN(C(=O)c1ccc2nc(N)c3cnn(C)c3c2c1)[C@@H]1CCc2cc(-c3cnn(C)c3)ccc21 (single isomer, unassigned) [Example 623] | 64 | 3490 |
| CN(C(=O)c1ccc2nc(N)c3cnn(C)c3c2c1)[C@H]1CCc2nc(-c3cnn(C)c3)ccc21 (single isomer, unassigned) [Example 624] | 75 | 6510 |
| CN(C(=O)c1ccc2nc(N)c3cnn(C)c3c2c1)[C@@H]1COCc2cc(-c3cnn(C(F)(F)F)c3)ccc21 (single isomer, unassigned) [Example 663] | 10 | 922 |
| CN(C(=O)c1ccc2nc(N)c3cnn(C)c3c2c1)[C@H]1COCc2cc(-c3cnn(C(F)(F)F)c3)ccc21 (single isomer, unassigned) [Example 664] | 319 | 1770 |
| CN(C(=O)c1cc2c3c(c(N)nc2cc1F)COC3)[C@H]1COCc2cc(-c3ccc(C(F)(F)F)cc3)ccc21 (single isomer, unassigned) [Example 665] | 875 | 2510 |

| SMILES | IC50 (HCT116 MTAP null cells) [nM] | IC50 (HCT116 WT cells) [nM] |
| --- | --- | --- |
| CN(C(=O)c1cc2c3c(c(N)nc2cc1F)COC3)[C@@H]1COCc2cc(-c3ccc(C(F)(F)F)cc3)ccc21 (single isomer, unassigned) [Example 666] | 22 | 1100 |
| CN(C(=O)c1ccc2nc(N)c3cnn(C)c3c2c1)[C@@H]1COCc2cc(-c3ccc(C(F)(F)F)cc3)ccc21 (single isomer, unassigned) [Example 669] | 16 | 1000 |
| CN(C(=O)c1ccc2nc(N)c3cnn(C)c3c2c1)[C@H]1COCc2cc(-c3ccc(C(F)(F)F)cc3)ccc21 (single isomer, unassigned) [Example 670] | 536 | 1120 |
| Cc1ccc2c(c1)CC[C@H]2N(C)C(=O)c1ccc2nc(N)c3cnn(C)c3c2c1 (single isomer, unassigned) [Example 680] | 168 | 7960 |
| CCN(C(=O)c1cc2c(cn1)nc(N)c1cnn(C)c12)C1COc2cc(C(F)(F)F)ccc21 (stereo in doubt) [Example 238, 4-amino-N-ethyl-1-methyl-N-((3S)-6-(trifluoromethyl)-2,3-dihydro-1-benzofuran-3-yl)-1H-pyrazolo[4,3-c][1,7]naph-thyridine-8-carboxamide] | 215 | 13000 |
| Cn1ncc2c(N)nc3cc(F)c(C(=O)N(C4CC4)[C@@H]4COc5cc(C(F)(F)F)ccc54)cc3c21 [Example 200, (S)-4-amino-N-cyclopropyl-7-fluoro-1-methyl-N-(6-(trifluoromethyl)-2,3-dihydrobenzofuran-3-yl)-1H-pyrazolo[4,3-c]quinoline-8-carboxamide] | 8 | 112 |
| CN(C(=O)c1ccc2nc(N)c3c(c2c1)COC3)[C@@H]1COc2cc(-c3cnn(C)c3)ccc21 [Example 202, 4-amino-N-methyl-N-((3S)-6-(1-methyl-1H-pyrazol-4-yl)-2,3-dihydro-1-benzofuran-3-yl)-1,3-dihydrofuro[3,4-c]-quinoline-8-carboxamide] | 83 | 11400 |
| C[C@H]1OCc2c1c(N)nc1ccc(C(=O)N(C)[C@@H]3COc4cc(-c5cnn(C)c5)ccc43)cc21 [Example 204, (3R)-4-amino-N,3-dimethyl-N-((3S)-6-(1-methyl-1H-pyrazol-4-yl)-2,3-dihydro-1-benzofuran-3-yl)-1,3-dihydrofuro[3,4-c]-quinoline-8-carboxamide] | 31 | 4390 |
| CN(C(=O)c1cc2c3c(c(N)nc2cn1)COC3)[C@@H]1COc2cc(OC(F)(F)F)ccc21 [Example 206, 4-amino-N-methyl-N-((3S)-6-(trifluoromethoxy)-2,3-dihydro-1-benzofuran-3-yl)-1,3-dihydrofuro[3,4-c][1,7]-naphthyridine-8-carboxamide] | 100 | 9790 |
| CN(C(=O)c1cc2c3c(c(N)nc2cn1)COC3)[C@H]1COc2cc(OC(F)(F)F)ccc21 [Example 207, 4-amino-N-methyl-N-((3R)-6-(trifluoromethoxy)-2,3-dihydro-1-benzofuran-3-yl)-1,3-dihydrofuro[3,4-c][1,7]-naphthyridine-8-carboxamide] | 6060 | 23200 |
| CN(C(=O)c1cc2c3c(c(N)nc2cn1)COC3)[C@@H]1COc2cc(Cl)c(Cl)cc21 [Example 209, 4-amino-N-((3S)-5,6-dichloro-2,3-dihydro-1-benzofuran-3-yl)-N-methyl-1,3-dihydrofuro[3,4-c][1,7]naphthyridine-8-carbox-amide] | 61 | 3000 |
| CN(C(=O)c1cc2c3c(c(N)nc2cn1)COC3)[C@H]1COc2cc(Cl)c(Cl)cc21 [Example 210, 4-amino-N-((3R)-5,6-dichloro-2,3-dihydro-1-benzofuran-3-yl)-N-methyl-1,3-dihydrofuro[3,4-c][1,7]naphthyridine-8-carbox-amide] | 2370 | 25300 |
| C[C@H]1OCc2c1c(N)nc1cnc(C(=O)N(C)[C@@H]3COc4cc(C(F)(F)F)ccc43)cc21 [Example 211, (3R)-4-amino-N,3-dimethyl-N-((3S)-6-(trifluoromethyl)-2,3-dihydro-1-benzofuran-3-yl)-1,3-dihydrofuro[3,4-c][1,7]-naphthyridine-8-carboxamide] | 28 | 1460 |
| CN(C(=O)c1cc2c3c(c(N)nc2cc1F)COC3)C1COc2ncc(C(F)(F)F)cc21 [Example 212, 4-amino-7-fluoro-N-methyl-N-((3R)-5-(trifluoromethyl)-2,3-dihydrofuro[2,3-b]pyridin-3-yl)-1,3-dihydrofuro[3,4-c]-quinoline-8-carboxamide and 4-amino-7-fluoro-N-methyl-N-((3S)-5-(trifluoromethyl)-2,3-dihydrofuro[2,3-b]pyridin-3-yl)-1,3-dihydrofuro[3,4-c]quin-oline-8-carboxamide] | 495 | 10700 |
| CN(C(=O)c1cc2c3c(c(N)nc2cc1F)COC3)[C@@H]1COc2cc(-c3cnn(C)c3)ccc21 [Example 214, 4-amino-7-fluoro-N-methyl-N-((3S)-6-(1-methyl-1H-pyrazol-4-yl)-2,3-dihydro-1-benzofuran-3-yl)-1,3-dihydrofuro[3,4-c]-quinoline-8-carboxamide] | 29 | 2060 |
| C[C@H]1OCc2c1c(N)nc1cc(F)c(C(=O)N(C)[C@@H]3COc4cc(-c5cnn(C)c5)ccc43)cc21 [Example 217, (3R)-4-amino-7-fluoro-N,3-dimethyl-N-((3S)-6-(1-methyl-1H-pyrazol-4-yl)-2,3-dihydro-1-benzofuran-3-yl)-1,3-dihydrofuro[3,4-c]quinoline-8-carboxamide] | 10 | 1020 |
| CN(C(=O)c1cc2c3c(c(N)nc2cc1C#N)COC3)[C@@H]1COc2cc(C(F)(F)F)ccc21 [Example 218, 4-amino-7-cyano-N-methyl-N-((3S)-6-(trifluoromethyl)-2,3-dihydro-1-benzofuran-3-yl)-1,3-dihydrofuro[3,4-c]quin-oline-8-carboxamide] | 13 | 838 |
